Laboratory results published in patent publication US20120202831A1, “Pharmaceutical Formulation” (SANOFI, priority 2009, published 2012).
Read-outs that look alike come from different tables or passages of the source.

Key:
Type in all cases: physicochemical
[1] = physical stability of the perfusion solution (no visible precipitation); conditions: perfusion solution from compound of formula (I) in PEG alone
[2] = chemical stability of formulations: impurity content by HPLC over time; conditions: versus PS80 and PS80/ethanol formulations; especially 25° C./60% RH and 30° C./65% RH
Description: A study of chemical stability by measuring the impurity content by high performance liquid chromatography (HPLC) was carried out on the formulations making it possible to achieve the target solubility.

[3] = solubility of the compound of formula (I) in media and formulations

physical stability of the perfusion solution [1]: < 24 h
chemical stability compared between formulations [2]: degrades less rapidly
solubility ([3]; medium: PEG 400): 9.5 mg/g
solubility ([3]; medium: ethanol): 3.8 mg/g
solubility ([3]; medium: propylene glycol): 1 mg/g
solubility ([3]; medium: tert-butanol): 1.2 mg/g
solubility ([3]; medium: water): <0.006 mg/g
solubility ([3]; organic solvent or mixture, dilution in PEG alone, read-out: solubility): ≤ 7000 µg/mL
Compound: CC(C)(C)NC(=O)Nc1nc2nc(Nc3ccc4nsnc4c3)ncc2cc1-c1c(Cl)cccc1Cl [compound of formula (I)]
